Laboratory results from patent publication US10106526B2, “Inhibitors of cyclin-dependent kinase 7 (CDK7)” (SYROS PHARMACEUTICALS, INC., priority 2014, dated 2018).
Counter-ions that a name gives are not always drawn.

Tests used:
CDK7 = molecular target: T1, CDK7 (Homo sapiens, UniProt P50613); test: CDK7 kinase activity, Adapta kinase assay (Life Technologies); assay type: biochemical; settings: Adapta kinase assay at Life Technologies; 10 μM down to 0.514 nM, 3-fold serial dilutions; read-out: CDK7 Inhibition (IC50)
T1 construct: purchased Life Technologies (Adapta kinase assay service)
Method: Compounds of the invention were assayed for CDK7 activity at Life Technologies™ (Grand Island, N.Y.) using their commercially available Adapta® kinase assay services. Compounds were tested at concentrations ranging from 10 μM down to 0.514 nM in a series of 3-fold serial dilutions. Details of these assays, including substrates used, are available on the Life Technologies web site (http://www.lifetechnologies.com/us/en/home/life-science/drug-discovery/target-and-lead-identification-and-validation/kinasebiology/kinase-activity-assays.html).

Jurkat cells = test: Inhibition of proliferation of Jurkat cells (CellTiter-Glo, 72 hour); assay type: cell-based, human; settings: 10 μM to 316 pM
Method: Jurkat cells are a cell line established from a human T cell leukemia. Representative compounds of the invention were tested at different concentrations (from 10 μM to 316 pM; 0.5 log serial dilutions) for their ability to inhibit the proliferation of Jurkat cells. Known CDK inhibitors flavopiridol and triptolide were used as positive controls. Cells were grown in RPMI 1640+10% FBS+1% Glutamax. The cells were supplemented with FBS (Life Technologies) and 100 U·mL^− penicillin, 100 μg·mL^− streptomycin (Invitrogen) and cultured at 37° C. in a humidified chamber in the presence of 5% CO2. Proliferation assays were conducted over a 72 hour time period. CellTiter-Glo® (Promega Corporation, Madison, Wis. USA) was used to assess the anti-proliferative effects of the compounds following manufacturer's directions and utilizing the reagents supplied with the CellTiter-Glo® kit. In this table, “A” represents an IC50 of less than 500 nM; “B” an IC50 of between 500 nM and 5 μM; and “C” an IC50 of greater than 5 μM.

A673 cells = test: Inhibition of proliferation of A673 cells (CyQUANT, 72 hour); assay type: cell-based, human; settings: 72 hour proliferation
Method: A673 cells are a cell line derived from human muscle Ewing's sarcoma. Representative compounds of the invention were tested at different concentrations (from 4 μM to 126.4 pM; 0.5 log serial dilutions) for their ability to inhibit the proliferation of A673 cells. Known CDK inhibitors flavopiridol and triptolide were used as positive controls. Cells were grown in Dulbecco's Modified Eagle's Medium, +10% FBS+1 mM Sodium Pyruvate. The cells were cultured at 37° C. in a humidified chamber in the presence of 5% CO2. Proliferation assays were conducted over a 72 hour time period. CyQUANT® (Life Technologies, Chicago, Ill. USA) was used to assess the anti-proliferative effects of the compounds following manufacturer's directions and utilizing the reagents supplied with the CyQUANT® kit. In this table, “A” represents an IC50 of less than 500 nM; “B” an IC50 of between 500 nM and 5 μM; and “C” an IC50 of greater than 5 μM.

T1 sequence (P50613 whole entry): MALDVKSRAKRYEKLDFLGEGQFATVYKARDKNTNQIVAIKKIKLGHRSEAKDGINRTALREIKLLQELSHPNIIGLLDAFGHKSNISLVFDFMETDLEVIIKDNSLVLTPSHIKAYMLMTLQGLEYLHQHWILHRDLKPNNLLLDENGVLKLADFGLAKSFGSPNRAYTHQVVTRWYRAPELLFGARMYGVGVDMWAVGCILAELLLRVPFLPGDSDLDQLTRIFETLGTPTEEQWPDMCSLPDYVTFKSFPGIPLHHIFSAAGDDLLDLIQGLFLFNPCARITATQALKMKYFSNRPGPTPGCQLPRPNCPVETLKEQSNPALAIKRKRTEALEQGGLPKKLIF
T1 sequence (P51946 whole entry partner): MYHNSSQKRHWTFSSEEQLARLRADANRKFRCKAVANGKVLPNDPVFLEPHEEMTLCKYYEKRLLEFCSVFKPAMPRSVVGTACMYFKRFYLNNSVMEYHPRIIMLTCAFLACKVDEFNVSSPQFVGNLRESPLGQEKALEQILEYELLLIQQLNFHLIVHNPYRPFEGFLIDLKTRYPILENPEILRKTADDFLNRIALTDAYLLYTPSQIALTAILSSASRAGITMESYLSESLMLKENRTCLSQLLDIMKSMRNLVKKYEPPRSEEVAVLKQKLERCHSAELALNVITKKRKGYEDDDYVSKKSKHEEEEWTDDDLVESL
T1 sequence (P51948 whole entry partner): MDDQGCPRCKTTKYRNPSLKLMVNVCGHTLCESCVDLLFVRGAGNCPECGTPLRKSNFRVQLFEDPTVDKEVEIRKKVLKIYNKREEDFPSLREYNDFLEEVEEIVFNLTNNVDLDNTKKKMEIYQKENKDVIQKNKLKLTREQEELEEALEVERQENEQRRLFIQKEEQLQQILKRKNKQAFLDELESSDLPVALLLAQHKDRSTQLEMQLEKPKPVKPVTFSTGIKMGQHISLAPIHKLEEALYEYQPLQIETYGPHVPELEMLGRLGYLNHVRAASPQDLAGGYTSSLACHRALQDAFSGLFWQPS

Compound	IC50 (CDK7) [nM]	IC50 (Jurkat cells; Homo sapiens) [nM]	IC50 (Jurkat cells) [nM]	IC50 (A673 cells; Homo sapiens) [nM]	IC50 (A673 cells) [nM]
C=CC(=O)NC12CC(C(=O)N[C@H]3CCC[C@@H](Nc4ncc(Cl)c(-c5c[nH]c6ccccc56)n4)C3)(C1)C2 (racemic) [Compound 109, N-[(±)-3-{[5-chloro-4-(1H-indol-3-yl)pyrimidin-2-yl]amino}cyclohexyl]-3-(prop-2-enamido)bicyclo[1.1.1]pentane-1-carboxamide]	> 1000	< 500	–	< 500	–
C=CC(=O)N1CCC(CNC2CCC(Nc3ncc(Cl)c(-c4c[nH]c5ccccc45)n3)CC2)CC1 (centres unmarked) [compound 184]	100 to 1000	–	> 5000	–	> 5000
C=CC(=O)N1CCC(O)(CN(C)[C@H]2CCC[C@@H](Nc3ncc(Cl)c(-c4c[nH]c5ccccc45)n3)C2)CC1 [Compound 225]	100 to 1000	–	> 5000	–	–
O=C(N[C@H]1CCC[C@@H](Nc2ncc(Cl)c(-c3c[nH]c4ccccc34)n2)C1)C1CCN(C(=O)/C=C/CN2CCOCC2)CC1 [Compound 202-1, N-((1S,3R)-3-((5-chloro-4-(1H-indol-3-yl)pyrimidin-2-yl)amino)cyclohexyl)-1-((E)-4-morpholinobut-2-enoyl)piperidine-4-carboxamide]	> 1000	500 to 5000	–	–	–
C=CC(=O)N1CCC(NC(=O)N2CCC[C@@H](Nc3ncc(Cl)c(-c4c[nH]c5ccccc45)n3)C2)CC1 [Compound 205]	100 to 1000	–	500 to 5000	–	< 500
C=CC(=O)N(C)[C@H]1CCC[C@@H](Nc2ncc(Cl)c(-c3c[nH]c4ccccc34)n2)C1 [Compound 171, N-((1S,3R)-3-(5-chloro-4-(1H-indol-3-yl)pyrimidin-2-ylamino)cyclohexyl)-N-methylacrylamide]	< 100	< 500	–	–	–
CN(C)C/C=C/C(=O)N[C@H]1CC[C@H](C(=O)Nc2cccc(Nc3ncc(Cl)c(-c4c[nH]c5ccccc45)n3)c2)CC1 [Compound 102, (trans,E)-N-(3-(5-chloro-4-(1H-indol-3-yl)pyrimidin-2-ylamino)phenyl)-4-(4-(dimethylamino)but-2-enamido)cyclohexanecarboxamide]	< 100	500 to 5000	–	–	–
CN(C)C/C=C/C(=O)NCCCCC(=O)N1CC[C@@H](Nc2ncc(Cl)c(-c3c[nH]c4ccccc34)n2)C1 [Compound 100, (E)-N-(5-((R)-3-(5-chloro-4-(1H-indol-3-yl)pyrimidin-2-ylamino)pyrrolidin-1-yl)-5-oxopentyl)-4-(dimethylamino)but-2-enamide]	< 100	500 to 5000	–	–	–
CN(C)C/C=C/C(=O)N1CCC[C@H](C(=O)Nc2cccc(Nc3ncc(Cl)c(-c4c[nH]c5ccccc45)n3)c2)C1 [Compound 104, (3S,E)-N-(3-(5-chloro-4-(1H-indol-3-yl)pyrimidin-2-ylamino)phenyl)-1-(4-(dimethylamino)but-2-enoyl)piperidine-3-carboxamide]	< 100	500 to 5000	–	–	–
O=C(/C=C/CN1CCOCC1)N1CCC(C(=O)N2CC[C@H](Nc3ncc(Cl)c(-c4c[nH]c5ccccc45)n3)C2)CC1 [Compound 211, (S,E)-1-(4-(3-((5-chloro-4-(1H-indol-3-yl)pyrimidin-2-yl)amino)pyrrolidine-1-carbonyl)piperidin-1-yl)-4-morpholinobut-2-en-1-One]	100 to 1000	> 5000	–	< 500	–
C=CC(=O)N1CCC(C(=O)N2CC[C@@H](Nc3ncc(Cl)c(-c4c[nH]c5ccccc45)n3)C2)CC1 [Compound 214, 1-[4-[(3R)-3-[[5-chloro-4-(1H-indol-3-yl)pyrimidin-2-yl]amino]pyrrolidine-1-carbonyl]-1-piperidyl]prop-2-en-1-One]	100 to 1000	> 5000	–	< 500	–
C=CC(=O)N1CCCC(CN[C@H]2CC[C@@H](Nc3ncc(Cl)c(-c4c[nH]c5ccccc45)n3)CC2)C1 (single isomer, unassigned) [compound 195]	100 to 1000	–	< 500	–	–
CN(C)CC=CC(=O)N1CCC(CNC2CCC(Nc3ncc(Cl)c(-c4c[nH]c5ccccc45)n3)CC2)CC1 (centres unmarked) [compound 197]	< 100	–	500 to 5000	–	–
CN(C)C/C=C/C(=O)NCCc1cc2ccc(Nc3ncc(Cl)c(-c4c[nH]c5ccccc45)n3)cc2[nH]1 [Compound 175, (E)-N-(2-(6-(5-chloro-4-(1H-indol-3-yl)pyrimidin-2-ylamino)-1H-indol-2-yl)ethyl)-4-(dimethylamino)but-2-enamide]	< 100	< 500	–	–	–

The next lines start with results.

IC50 (CDK7) [nM]	IC50 (Jurkat cells; Homo sapiens) [nM]	IC50 (Jurkat cells) [nM]	Compound	IC50 (A673 cells; Homo sapiens) [nM]	IC50 (A673 cells) [nM]
< 100	> 5000	–	CN(C)C/C=C/C(=O)Nc1cnn(CC2(O)CCC(Nc3ncc(Cl)c(-c4c[nH]c5ccccc45)n3)CC2)c1 (centres unmarked) [Compound 114, (E)-N-(1-((4-(5-chloro-4-(1H-indol-3-yl)pyrimidin-2-ylamino)-1-hydroxycyclohexyl)methyl)-1H-pyrazol-4-yl)-4-(dimethylamino)but-2-enamide]	> 5000	–
< 100	< 500	–	C=CC(=O)N1CCN(CC2(O)CCC[C@@H](Nc3ncc(Cl)c(-c4c[nH]c5ccccc45)n3)C2)CC1 (single isomer, unassigned) [Compound 187]	< 500	–
< 100	< 500	–	C=CC(=O)N1CCC(CN(C)[C@H]2CCC[C@@H](Nc3ncc(Cl)c(-c4c[nH]c5ccccc45)n3)C2)CC1 [Compound 167]	< 500	–
< 100	< 500	–	C=CC(=O)N1CCC(CN2CCC(Nc3ncc(Cl)c(-c4c[nH]c5ccccc45)n3)CC2)CC1 [Compound 141, 1-(4-((4-((5-chloro-4-(1H-indol-3-yl)pyrimidin-2-yl)amino)piperidin-1-yl)methyl)piperidin-1-yl)prop-2-en-1-One]	–	–
< 100	< 500	–	C=CC(=O)N1CCCC(CN(C(=O)C=C)C2CCC(Nc3ncc(Cl)c(-c4c[nH]c5ccccc45)n3)CC2)C1 (centres unmarked) [Compound 191-1, N-[4-[[5-chloro-4-(1H-indol-3-yl)pyrimidin-2-yl]amino]cyclohexyl]-N-[(1-prop-2-enoyl-3-piperidyl)methyl]prop-2-enamide]	500 to 5000	–
< 100	< 500	–	C=CC(=O)NCCC(=O)N[C@H]1CCC[C@@H](Nc2ncc(Cl)c(-c3c[nH]c4ccccc34)n2)C1 [Compound 172, N-(3-((1S,3R)-3-(5-chloro-4-(1H-indol-3-yl)pyrimidin-2-ylamino)cyclohexylamino)-3-oxopropyl)acrylamide]	–	–
< 100	500 to 5000	–	N[C@H]1CC[C@H](C(=O)Nc2cccc(Nc3ncc(Cl)c(-c4c[nH]c5ccccc45)n3)c2)CC1 [Compound 1002, trans-4-amino-N-(3-(5-chloro-4-(1H-indol-3-yl)pyrimidin-2-ylamino)phenyl) cyclohexanecarboxamide.HCl]	–	–
< 100	500 to 5000	–	CN(C)C/C=C/C(=O)N1CCC(C(=O)Nc2cccc(Nc3ncc(Cl)c(-c4c[nH]c5ccccc45)n3)c2)CC1 [Compound 105, (E)-N-(3-(5-chloro-4-(1H-indol-3-yl)pyrimidin-2-ylamino)phenyl)-1-(4-(dimethylamino)but-2-enoyl)piperidine-4-carboxamide]	–	–
< 100	–	< 500	C=CC(=O)N1CCC(CNC2CCC(Nc3ncc(Cl)c(-c4c[nH]c5ccccc45)n3)CC2)CC1 (centres unmarked) [compound 163]	–	< 500
< 100	–	500 to 5000	O=C(Nc1cccc(Nc2ncc(Cl)c(-c3c[nH]c4ccccc34)n2)c1)C1CCCNC1 (centres unmarked) [compound 1003]	–	–
< 100	500 to 5000	–	O=C(Nc1cccc(Nc2ncc(Cl)c(-c3c[nH]c4ccccc34)n2)c1)[C@@H]1CCCNC1 [Compound 1004, (3R)—N-(3-(5-chloro-4-(1H-indol-3-yl)pyrimidin-2-ylamino)phenyl)piperidine-3-carboxamide]	–	–
< 100	< 500	–	C=CC(=O)N1CCN(C[C@@H]2CCC[C@H](Nc3ncc(Cl)c(-c4c[nH]c5ccccc45)n3)C2)CC1 [Compound 204, 1-(4-(((1R,3S)-3-((5-chloro-4-(1H-indol-3-yl)pyrimidin-2-yl)amino)cyclohexyl)methyl)-piperazin-1-yl)prop-2-en-1-One]	–	–
< 100	500 to 5000	–	C=CC(=O)N1CCCC(CNC2CCC(Nc3ncc(Cl)c(-c4c[nH]c5ccccc45)n3)CC2)C1 (centres unmarked) [Compound 190, 1-[3-[[[4-[[5-chloro-4-(1H-indol-3-yl)pyrimidin-2-yl]amino]cyclohexyl]amino]methyl]-1-piperidyl]prop-2-en-1-One]	< 500	–
